Experimental findings from patent US11291704B2, “Composition for preventing or treating obesity containing ethanolic extract of Ramulus mori” (Korea University Research and Business Foundation, priority 2016, dated 2022) are described below.

The subject of the experiment is 3T3-L1 cells. Briefly: Lipid accumulation evaluation, Oil red O staining of MDI-differentiated adipocytes. Format: cell-based. As to conditions: 5 mM; DMSO-only sample = 100%; absorbance at 500 nm. The protocol: For induction of 3T3-L1 cells into adipocytes, the cells were treated with MDI (5 μg/ml insulin, 0.5 mM IBMX, and 1.0 μM dexamethasone) in DMEM containing 10% FBS and 1% penicillin-streptomycin, followed by induction of differentiation for 2 days. The differentiated 3T3-L1 cells were washed with physiological buffered saline (PBS), and then fixed with 10% formalin for 1 hour. The fixed cells were washed twice with ddH2O, treated with 60% isopropanol for 5 minutes, and then stained with Oil red O solution (dissolved in 60% isopropanol) for 10 minutes. After staining, the cells were washed four times with ddH2O, and de-stained with 100% isopropanol for 10 minutes, and then the cells were observed using a microscope and measured for absorbance at 500 nm.
The result of the sample treated with only DMSO used as a solvent was converted to 100%, and quantitatively measured for lipids.

The compound `CC(=O)N[C@@H](CS)C(=O)O` [n-acetyl cysteine] came in with a lipid accumulation of 20.6±3.7%.
